In general, MIC refers to the lowest concentration found to suppress growth.

Converted amounts (≈) assume the structure as drawn.

These results are taken from ChEMBL document CHEMBL1132087, “New N-substituted 7-aminocephalosporanic acid derivatives as potential agents against Streptococcus pneumoniae. Synthesis and in vitro activity” (1999).

Common to all, as to type: functional
For one assay, the system named is Streptococcus pyogenes. The assay is described as follows: In vitro antibacterial activity against the gram-positive bacteria, erythromycin resistant Streptococcus pyogenes.
For assay [1], the system named is Streptococcus pneumoniae. The assay is described as follows: In vitro antibacterial activity against the gram-positive bacteria, penicillin resistant Streptococcus pneumoniae (4636).
Assay [2] concerns Streptococcus pneumoniae. The assay is described as follows: In vitro antibacterial activity against the gram-positive bacteria, penicillin sensitive Streptococcus pneumoniae (3273).
Assay [3] has as its system Streptococcus pneumoniae. The assay is described as follows: In vitro antibacterial activity against the gram-positive bacteria, penicillin resistant Streptococcus pneumoniae (4635).
Assay [4] concerns Staphylococcus aureus. The assay is described as follows: In vitro antibacterial activity against the gram-positive bacteria, penicillin sensitive Staphylococcus aureus (3849).
The test system of assay [5] is Staphylococcus aureus. The assay is described as follows: In vitro antibacterial activity against the gram-positive bacteria, penicillin resistant Staphylococcus aureus (2619).
In assay [6] the test system is Staphylococcus aureus. The assay is described as follows: In vitro antibacterial activity against the gram-positive bacteria, penicillin resistant Staphylococcus aureus (2672).
In assay [7] the test system is Streptococcus pneumoniae. The assay is described as follows: In vitro antibacterial activity against the gram-positive bacteria, penicillin sensitive Streptococcus pneumoniae (3512).
The test system of assay [8] is Staphylococcus aureus. The assay can be described thus: In vitro antibacterial activity against the gram-positive bacteria, penicillin sensitive Staphylococcus aureus (663E).
Assay [9] concerns Streptococcus pneumoniae. The assay is described as follows: In vitro antibacterial activity against the gram-positive bacteria, penicillin sensitive Streptococcus pneumoniae (3272).
Assay [10] has as its system Streptococcus pneumoniae. The assay can be described thus: In vitro antibacterial activity against the gram-positive bacteria, penicillin resistant Streptococcus pneumoniae (4630).
Assay [11] relates to Staphylococcus aureus. The assay is described as follows: In vitro antibacterial activity against the gram-positive bacteria, penicillin sensitive Staphylococcus aureus (3072).
Assay [12] relates to Staphylococcus aureus. The assay can be described thus: In vitro antibacterial activity against the gram-positive bacteria, penicillin resistant Staphylococcus aureus (853).
The test system of assay [13] is Streptococcus pneumoniae. The assay is described as follows: In vitro antibacterial activity against the gram-positive bacteria, penicillin resistant Streptococcus pneumoniae (4629).

As to `CC1(C)S[C@@H]2[C@H](NC(=O)[C@H](N)c3ccc(O)cc3)C(=O)N2[C@H]1C(=O)O.O=C(O)[C@H]1/C(=C/CO)O[C@@H]2CC(=O)N21`, the MIC in the assay with Streptococcus pyogenes is 0.06 µg/mL; with Streptococcus pneumoniae [1], 4 µg/mL; against Streptococcus pneumoniae [2], under 0.015 µg/mL; with Streptococcus pneumoniae [3], 4 µg/mL; against Staphylococcus aureus [4], 0.25 µg/mL; in the assay with Staphylococcus aureus [5], 2 µg/mL. In addition, the MIC is 1 µg/mL against Staphylococcus aureus [6]; under 0.015 µg/mL in the assay with Streptococcus pneumoniae [7]; 0.25 µg/mL with Staphylococcus aureus [8]; under 0.015 µg/mL in the assay with Streptococcus pneumoniae [9]; 2 µg/mL against Streptococcus pneumoniae [10]; 0.5 µg/mL in the assay on Staphylococcus aureus [11]. Moreover, the results for the MIC in the assay on Staphylococcus aureus [12] and against Streptococcus pneumoniae [13] were 2 µg/mL and 4 µg/mL, respectively.
Take `CC(=O)OCC1=C(C(=O)O)N2C(=O)[C@@H](NC(=O)CN(OCc3cccc(Cl)c3)C(=O)c3ccccc3)C2SC1` (stereo partly drawn): the MIC was found to be 0.25 µg/mL (≈ 0.436 µM) in the assay on Streptococcus pyogenes; 2 µg/mL (≈ 3.48 µM) in the assay with Streptococcus pneumoniae [1]; 0.12 µg/mL (≈ 0.209 µM) in the assay on Streptococcus pneumoniae [2]; 1 µg/mL (≈ 1.74 µM) with Streptococcus pneumoniae [3]; 0.5 µg/mL (≈ 0.871 µM) with Staphylococcus aureus [4]; 1 µg/mL (≈ 1.74 µM) against Staphylococcus aureus [5]. Also, the MIC is 4 µg/mL (≈ 6.97 µM) against Staphylococcus aureus [6]; 0.06 µg/mL (≈ 0.105 µM) with Streptococcus pneumoniae [7]; 0.5 µg/mL (≈ 0.871 µM) in the assay on Staphylococcus aureus [8]; 0.06 µg/mL (≈ 0.105 µM) against Streptococcus pneumoniae [9]; 8 µg/mL (≈ 13.9 µM) in the assay on Streptococcus pneumoniae [10]; 0.5 µg/mL (≈ 0.871 µM) against Staphylococcus aureus [11]. Besides, the MIC against Staphylococcus aureus [12] came to 0.5 µg/mL (≈ 0.871 µM); in the assay on Streptococcus pneumoniae [13] it was 8 µg/mL (≈ 13.9 µM).
Turning to `CC(=O)OCC1=C(C(=O)O)N2C(=O)[C@@H](NC(=O)CN(OCc3ccccc3)C(=O)Nc3ccccc3)C2SC1` (stereo partly drawn), the MIC against Streptococcus pyogenes turned out to be 0.12 µg/mL (≈ 0.216 µM); with Streptococcus pneumoniae [1], 16 µg/mL (≈ 28.9 µM); against Streptococcus pneumoniae [2], 0.25 µg/mL (≈ 0.451 µM); in the assay with Streptococcus pneumoniae [3], 8 µg/mL (≈ 14.4 µM); in the assay on Staphylococcus aureus [4], 0.5 µg/mL (≈ 0.902 µM); in the assay on Staphylococcus aureus [5], 2 µg/mL (≈ 3.61 µM). For the same compound, the MIC against Staphylococcus aureus [6] was 4 µg/mL (≈ 7.21 µM); in the assay on Streptococcus pneumoniae [7], 0.25 µg/mL (≈ 0.451 µM); in the assay on Staphylococcus aureus [8] it was 0.5 µg/mL (≈ 0.902 µM); with Streptococcus pneumoniae [9] it was 0.12 µg/mL (≈ 0.216 µM); in the assay with Streptococcus pneumoniae [10], 8 µg/mL (≈ 14.4 µM); in the assay with Staphylococcus aureus [11], 1 µg/mL (≈ 1.8 µM). Besides, the MIC against Staphylococcus aureus [12] was determined as 1 µg/mL (≈ 1.8 µM); against Streptococcus pneumoniae [13], 8 µg/mL (≈ 14.4 µM).
Take `CC(=O)OCC1=C(C(=O)O)N2C(=O)[C@@H](NC(=O)CN(OCc3ccccc3)C(=O)c3ccccc3)C2SC1` (stereo partly drawn): the MIC amounted to 0.25 µg/mL (≈ 0.463 µM) against Streptococcus pyogenes; 16 µg/mL (≈ 29.7 µM) against Streptococcus pneumoniae [1]; 0.06 µg/mL (≈ 0.111 µM) against Streptococcus pneumoniae [2]; 8 µg/mL (≈ 14.8 µM) against Streptococcus pneumoniae [3]; 0.5 µg/mL (≈ 0.927 µM) with Staphylococcus aureus [4]; 2 µg/mL (≈ 3.71 µM) in the assay with Staphylococcus aureus [5]. Moreover, the MIC in the assay on Staphylococcus aureus [6] was found to be 8 µg/mL (≈ 14.8 µM); against Streptococcus pneumoniae [7] it was 0.03 µg/mL (≈ 0.0556 µM); against Staphylococcus aureus [8], 0.5 µg/mL (≈ 0.927 µM); against Streptococcus pneumoniae [9], 0.06 µg/mL (≈ 0.111 µM); in the assay on Streptococcus pneumoniae [10] it was 8 µg/mL (≈ 14.8 µM); with Staphylococcus aureus [11] it was 1 µg/mL (≈ 1.85 µM). Moreover, the results for the minimal inhibitory concentration (MIC) with Staphylococcus aureus [12] and against Streptococcus pneumoniae [13] were 1 µg/mL (≈ 1.85 µM) and 8 µg/mL (≈ 14.8 µM), respectively.
For the compound `CC(=O)OCC1=C(C(=O)O)N2C(=O)[C@@H](NC(=O)CN(OCc3cccc(Cl)c3)C(=O)Nc3ccccc3)C2SC1` (stereo partly drawn), the MIC against Streptococcus pyogenes was 0.12 µg/mL (≈ 0.204 µM); with Streptococcus pneumoniae [1] it was 4 µg/mL (≈ 6.79 µM); in the assay with Streptococcus pneumoniae [2], 0.12 µg/mL (≈ 0.204 µM); against Streptococcus pneumoniae [3], 2 µg/mL (≈ 3.4 µM); against Staphylococcus aureus [4], 0.5 µg/mL (≈ 0.849 µM); in the assay on Staphylococcus aureus [5], 1 µg/mL (≈ 1.7 µM). For the same compound, the MIC was found to be 2 µg/mL (≈ 3.4 µM) against Staphylococcus aureus [6]; 0.12 µg/mL (≈ 0.204 µM) with Streptococcus pneumoniae [7]; 0.5 µg/mL (≈ 0.849 µM) with Staphylococcus aureus [8]; 0.06 µg/mL (≈ 0.102 µM) against Streptococcus pneumoniae [9]; 4 µg/mL (≈ 6.79 µM) against Streptococcus pneumoniae [10]; 0.5 µg/mL (≈ 0.849 µM) in the assay with Staphylococcus aureus [11]. The values for the MIC in the assay with Staphylococcus aureus [12] and in the assay with Streptococcus pneumoniae [13] were 1 µg/mL (≈ 1.7 µM) and 4 µg/mL (≈ 6.79 µM), respectively.
For the compound `CC(=O)OCC1=C(C(=O)O)N2C(=O)[C@@H](NC(=O)CN(OCc3ccccc3)C(=O)NCc3ccccc3)C2SC1` (stereo partly drawn), the MIC in the assay with Streptococcus pyogenes was found to be 0.25 µg/mL (≈ 0.44 µM); against Streptococcus pneumoniae [1], 32 µg/mL (≈ 56.3 µM); against Streptococcus pneumoniae [2], 0.5 µg/mL (≈ 0.879 µM); in the assay with Streptococcus pneumoniae [3], 4 µg/mL (≈ 7.03 µM); with Staphylococcus aureus [4], 1 µg/mL (≈ 1.76 µM); against Staphylococcus aureus [5], 1 µg/mL (≈ 1.76 µM). Moreover, the MIC is 2 µg/mL (≈ 3.52 µM) in the assay with Staphylococcus aureus [6]; 0.25 µg/mL (≈ 0.44 µM) in the assay with Streptococcus pneumoniae [7]; 0.5 µg/mL (≈ 0.879 µM) in the assay on Staphylococcus aureus [8]; 0.12 µg/mL (≈ 0.211 µM) against Streptococcus pneumoniae [9]; 16 µg/mL (≈ 28.1 µM) against Streptococcus pneumoniae [10]; 1 µg/mL (≈ 1.76 µM) against Staphylococcus aureus [11]. For the same compound, the figures for the MIC against Staphylococcus aureus [12] and against Streptococcus pneumoniae [13] were 1 µg/mL (≈ 1.76 µM) and 16 µg/mL (≈ 28.1 µM), respectively.
Regarding `CC(=O)OCC1=C(C(=O)O)N2C(=O)[C@@H](NC(=O)CN(OCc3ccccc3Cl)C(=O)c3ccccc3)C2SC1` (stereo partly drawn), the MIC was determined as 0.5 µg/mL (≈ 0.871 µM) in the assay on Streptococcus pyogenes; 32 µg/mL (≈ 55.7 µM) in the assay with Streptococcus pneumoniae [1]; 0.25 µg/mL (≈ 0.436 µM) in the assay on Streptococcus pneumoniae [2]; 16 µg/mL (≈ 27.9 µM) against Streptococcus pneumoniae [3]; 0.5 µg/mL (≈ 0.871 µM) in the assay with Staphylococcus aureus [4]; 4 µg/mL (≈ 6.97 µM) against Staphylococcus aureus [5]. Besides, the MIC in the assay on Staphylococcus aureus [6] turned out to be 8 µg/mL (≈ 13.9 µM); in the assay on Streptococcus pneumoniae [7], 0.25 µg/mL (≈ 0.436 µM); against Staphylococcus aureus [8], 1 µg/mL (≈ 1.74 µM); against Streptococcus pneumoniae [9], 0.25 µg/mL (≈ 0.436 µM); against Streptococcus pneumoniae [10] it was 16 µg/mL (≈ 27.9 µM); against Staphylococcus aureus [11] it was 1 µg/mL (≈ 1.74 µM). The MIC in the assay on Staphylococcus aureus [12] turned out to be 1 µg/mL (≈ 1.74 µM); against Streptococcus pneumoniae [13], 16 µg/mL (≈ 27.9 µM).
